Reference: patent publication US20080103189A1, “PREPARATION AND UTILITY OF SUBSTITUTED INDOLES” (Auspex Pharmaceuticals, Inc., priority 2006, published 2008)

Settings: topical or ocular, 5 microgram per mL
Description: Liver microsomal stability assays were conducted at 1 mg per mL liver microsome protein with an NADPH-generating system in 2% NaHCO3 (2.2 mM NADPH, 25.6 mM glucose 6-phosphate, 6 units per mL glucose 6-phosphate dehydrogenase and 3.3 mM MgCl2). Test compounds were prepared as solutions in 20% acetonitrile-water and added to the assay mixture (final assay concentration 5 microgram per mL) and incubated at 37° C. Final concentration of acetonitrile in the assay were <1%. Aliquots (50 μL) were taken out at times 0, 15, 30, 45, and 60 minutes, and diluted with ice cold acetonitrile (200 μL) to stop the reactions. Samples were centrifuged at 12000 RPM for 10 minutes to precipitate proteins. Supernatants were transferred to microcentrifuge tubes and stored for LC/MS/MS analysis of the degradation half-life of the test compounds.

[2H]C([2H])(Cc1c[nH]c2ccc(CS(=O)(=O)N3CCCC3)cc12)N(C)C
increase in the degradation half-life as compared to the non-isotopically enriched drug: 20-250%
